Assays:
[1] = test system: WT M1 parental cells (M1 murine myeloid leukemic cell line); assay: IL-6 dose response (differentiation) in WT M1 cells; format: cell-based; conditions: IL-6 dose response, Fig. 1a, approximate
Source text: (§1) The M1 murine myeloid leukemic cell line responds in a dose-dependent manner to IL-6 stimulation. Culturing M1 cells in IL-6 results in differentiation from monocytic-like progenitor cells into terminally differentiated macrophages that undergo cell death. […] This was in contrast to five other phosphatases that were similarly overexpressed. Using an Incucyte growth assay, the growth of wild-type M1 cells was compared to that of M1 cells overexpressing HALO-PTP1B both with and without IL-6 (Fig. 1b). […] As expected, there was no difference in the growth rate of any of these cell lines in the absence of IL-6. […] To confirm that the activation loop of the JAKs are indeed a target of PTP1B, dephosphorylation assays with activated recombinant JAK kinase domains were performed in vitro. All four members of the JAK family were dephosphorylated in a PTP1B-dependent manner although JAK1 was dephosphorylated to a lesser extent than others (Fig. 1c).
Fig. 1 PTP1B dephosphorylates the JAK activation loops. a IL-6 dose response curves for phosphatases overexpressed in the M1 cell line. […] (Top) Immunoblot (IB) probing for phosphorylated-JAK (P-JAK1 antibody) activation loop. (Bottom) Ponceau stained membrane to confirm equal input of proteins on gel. Data are representative of 3 independent experiments. d Overexpression of FLAG-JAK and HALO-PTP1B in HEK293T cells. […]

[2] = test system: M1 cells overexpressing PTP1B; assay: IL-6 dose response (differentiation) in M1 cells overexpressing PTP1B; format: cell-based, murine; conditions: IL-6 dose response, Fig. 1a, approximate
Source text: as §1, with “1c). […]” for “1c).”
Murine PTP1B with an N-terminal Halo tag was sub-cloned into the Tet-On pfTRE3G expression vector for generation of a stable doxycycline-inducible Halo-mPTP1B expressing HEK293T cell line. […] 24 h post-transfection, cells were lysed in sample reducing buffer and analysed by SDS-PAGE and immunoblot as above (dephosphorylation assays). […]

IL-6: cytokine used to stimulate M1 cells
EC50 of IL-6 (induction of differentiation) [1]: ~2 ng/mL | EC50 of IL-6 (induction of differentiation) [2]: approximately 10 ng/mL

From publication PMC10267100 (Communications Biology, 2023)
